In patent US11382935B2, “Composition for improving cognitive ability and preventing or treating dementia and attention deficit hyperactivity disorder, comprising Galla rhois extract and fraxin as active ingredients” (priority 2018, dated 2022):

Columns and labels:
[1] = test system: Human umbilical vein endothelial cells (HUVECs); experiment: MTT assay of cell damage in hydrogen peroxide-treated HUVECs (cell regeneration effect); type: cell-based; settings: HUVECs treated with antioxidant, then hydrogen peroxide
Protocol: (§1) Human umbilical vein endothelial cells (HUVECs) were treated with each of the 7 types of antioxidants A1-A7, and then an oxidant, hydrogen peroxide, was administered to analyze the degree of cell damage by an MTT assay, and then the activity of superoxide dismutase and catalase was measured.

[2] = test system: HUVECs; experiment: Production of reactive oxygen species (ROS), DCF fluorescence, in H2O2-treated HUVECs; type: cell-based, Human; settings: for reduction of the H2O2-induced increase in ROS level: H2O2-treated HUVECs, DCF fluorescence, H2O2 increases ROS by 55%; for ROS scavenging effect: HUVECs treated with antioxidant, then hydrogen peroxide
[3] = test system: Superoxide dismutase (SOD); experiment: Superoxide dismutase (SOD) assay in H2O2-treated HUVECs; type: cell-based, Human; settings: treated before H2O2 treatment
Protocol: as §1

[4] = test system: HUVECs; experiment: Lipid peroxidation (LPO) assay, MDA amount, in H2O2-exposed cells; type: cell-based, Human; settings: cells exposed to H2O2
[5] = DPPH assay of free radical-scavenging activity; type: biochemical; settings: absorbance at 517 nm for 10 minutes
Protocol: In the present invention, the experiment was carried out with fraxin having a concentration of 0.5 mM, and this concentration is a result of performing an experiment of the free radical-scavenging activity of fraxin using a DPPH assay. A DPPH solution was treated with various concentrations of fraxin (0.02, 0.1 and 0.5 mM), and a change in absorbance was monitored at 517 nm for 10 minutes. The free radical scavenging activity was approximately 10%, 18% or 50% at the fraxin concentration of 0.02, 0.1 or 0.5 mM, respectively, and 0.5 mM was selected for subsequent experiment.

[6] = test system: Human umbilical vein endothelial cells (HUVECs); experiment: Antioxidant activity screening; type: cell-based; settings: screening of components with known antioxidant activity
Protocol: Compounds used in the antioxidant activity screening of the present invention are A1 to A7 below:
as §1

Row | SOD activity [3] | SMILES | cell regeneration effect [1] | reduction of the H2O2-induced increase in ROS level [2] | ROS scavenging effect [2] | reduction of the H2O2-induced increase in MDA amount (LPO) [4] | free radical scavenging activity ([5]; 0.02 mM) | free radical scavenging activity ([5]; 0.1 mM) | free radical scavenging activity ([5]; 0.5 mM) | antioxidant activity [6]
1 | increase | COc1cc2ccc(=O)oc2c(O[C@@H]2O[C@H](CO)[C@@H](O)[C@H](O)[C@H]2O)c1O [A3, fraxin] | high | 39% | poor | greatly reduced | approximately 10% | ~18% | ~50% | highest activity
2 | – | COC(=O)c1cc(O)c(O)c(O)c1 [A4, methyl gallate] | high | 24% | high | greatly reduced | – | – | – | –
3 | – | C[C@@H]1O[C@@H](O[C@@H]2[C@@H](O)[C@H](OCCc3ccc(O)c(O)c3)O[C@H](CO)[C@H]2OC(=O)/C=C/c2ccc(O)c(O)c2)[C@H](O)[C@H](O)[C@H]1O [A6, Acteoside] | did not show | – | did not show | – | – | – | – | –
4 | – | O=C(CC(O)(CC(=O)OCc1ccc(O[C@@H]2O[C@H](CO)[C@@H](O)[C@H](O)[C@H]2O)cc1)C(=O)O)OCc1ccc(O[C@@H]2O[C@H](CO)[C@@H](O)[C@H](O)[C@H]2O)cc1 [A7, 1,3-bis[4-(3-D-glucopyranosyl)benzyl]citrate] | did not show | – | did not show | – | – | – | – | –
5 | – | O=C(O)c1cc(O)c(O)c(O)c1 [gallic acid] | – | – | – | – | – | – | – | highest activity
